Assay results reported in patent US20020152038A1, “Selection method for aroma substances” (priority 2000, published 2002).
Where two headings read alike, the source gives them in different places.

What was measured:
[1] = according to COSMO-RS correlation
[2] = Headspace above the lemonade, SPME, relative partition parameters; format: physicochemical
Protocol: (§1) The procedure is analogous in all examples.
The example reflects the taste impression which is perceived from via the olfactory epithelium, when enjoying a lemonade drink. The mixture of 39 odorants is incorporated into the above-mentioned lemonade drink (1) in an amount of 0.05%. 50 g of the lemonade drink are transferred to a 100 ml Erlenmeyer flask sealed with a septum and left to stand for 2 h at 35° C. with gentle stirring. The headspace above the lemonade is extracted using a SPME over 15 min. […] The analytical results are then used mathematically as described above.

[3] = Headspace above the milkshake, SPME-GC, relative partition parameters; format: physicochemical
Protocol: as §1
The example reflects the taste impression which is perceived via the olfactory epithelium, when enjoying a milkshake. The milkshake is prepared as is generally customary. The mixture of 39 aroma substances is incorporated into the abovementioned milk product (1) in an amount of 0.2%. 50 g of this mixture are transferred to a 100 ml Erlenmeyer flask sealed with a septum and left to stand for 2 h at 35° C. with gentle stirring. The headspace above the mixture is extracted over 15 min using solid phase microextraction (SPME). The SPME needle is desorbed in a GC injector, and a gas chromatogram is recorded. […] The analytical results are then used mathematically as described above.

[4] = according to COSMO-RS correlation; remark: listed apart in the source
[5] = headspace vs lemonade, 0.05% odorant mixture, 2 h at 35° C., SPME 15 min
[6] = headspace vs milkshake, 0.2% aroma mixture, 2 h at 35° C., SPME 15 min

Compound | Differences (Activity minus Prediction, milkshake) [1] | Activity (logarithmic partition parameter above lemonade) [2, 5] | Activity (logarithmic partition parameter above a milkshake) [3, 6] | Differences (Activity minus Prediction, lemonade) [4] | Activity (logarithmic partition parameter above lemonade) [2] | Activity (logarithmic partition parameter above a milkshake) [3]
CC(=O)O[C@@H]1C[C@H]2CC[C@]1(C)C2(C)C (racemic) [Isobornyl acetate] | 0.480 | 0.994 | 0.707 | 0.587 | – | –
CC(=O)OCc1ccccc1 [Benzyl acetate] | 0.515 | 0.086 | 0.306 | 0.552 | – | –
OCc1ccccc1 [Benzyl alcohol] | −0.391 | −1.955 | −0.819 | −0.783 | – | –
O=C(OCc1ccccc1)c1ccccc1O [Benzyl salicylate] | −1.057 | −3.037 | −3.313 | −0.340 | – | –
C=C1CCC2CC1C2(C)C (stereo not drawn) [Beta-Pinene] | −0.082 | 0.485 | 1.029 | −0.189 | – | –
C=C1C2CCC(C2)C1(C)C (centres unmarked) [Camphene] | −0.169 | 0.465 | 0.985 | −0.226 | – | –
C[C@@H]1CC[C@H]2C(C)(C)[C@H]3C[C@@]12CC[C@@]3(C)O [Cedrol] | −0.025 | −0.895 | −1.077 | 0.196 | – | –
CC(=O)O[C@]1(C)CC[C@@]23C[C@@H]1C(C)(C)[C@@H]2CC[C@H]3C [Cedryl acetate] | – | – | – | – | −1.653 | −1.690
CC(C)=CCCC(C)CCO (centres unmarked) [Citronellol] | 0.138 | 0.044 | 0.199 | 0.207 | – | –
O=c1ccc2ccccc2o1 [Coumarin] | 0.244 | – | – | 0.162 | – | –
CC(=O)OC(C)(C)Cc1ccccc1 [DMBCA, dimethylbenzylcarbinyl acetate] | 0.537 | 0.523 | 0.378 | 0.898 | – | –
CCOC(=O)c1ccccc1C(=O)OCC [Diethyl phthalate] | −0.553 | −1.895 | −1.607 | −1.693 | – | –
C=CC(C)CCCC(C)(C)O (centres unmarked) [Dihydromyrcenol] | 0.135 | 0.334 | 0.432 | 0.513 | – | –
C=CCc1ccc(O)c(OC)c1 [Eugenol] | 0.528 | −0.841 | −0.557 | 0.454 | – | –
CC(C)=CCC/C(C)=C/CO [Geraniol] | – | −0.413 | −0.053 | – | – | –
CCCCCC/C(C=O)=C\c1ccccc1 [Hexylcinnamaldehyde, α] | −0.674 | −1.911 | −1.949 | −0.710 | – | –
CC(CC=O)CCCC(C)(C)O (centres unmarked) [Hydroxycitronellal] | −1.369 | −1.879 | −1.679 | −1.868 | – | –
CC(=O)/C=C/C1C(C)=CCCC1(C)C (stereo not drawn) [Ionone, α, Ionone, alpha] | 0.158 | 0.024 | −0.001 | −0.060 | – | –
CC(=O)/C=C/C1=C(C)CCCC1(C)C [Ionone, β, Ionone, beta] | 0.047 | −0.061 | −0.154 | 0.072 | – | –
CC(C)CCOC(=O)c1ccccc1O [Isoamyl salicylate] | 0.215 | −0.462 | −0.528 | 0.201 | – | –
CC(C=O)Cc1ccc(C(C)(C)C)cc1 (centres unmarked) [Lilial] | 0.135 | −0.656 | −0.690 | 0.074 | – | –
C=C(C)[C@H]1CC=C(C)CC1 [Limonene D] | −0.090 | 0.925 | 1.088 | 0.072 | – | –
C=CC(C)(O)CCC=C(C)C (centres unmarked) [Linalool] | −0.231 | 0.141 | 0.225 | 0.246 | – | –
OCCc1ccccc1 [PEA, phenylethyl alcohol] | 0.225 | 0.001 | 0.188 | 0.272 | – | –
CC(=O)OCC=C(C)C [Prenyl acetate] | −0.864 | 0.151 | 0.413 | −1.038 | – | –
CC(=O)OC(C)c1ccccc1 (centres unmarked) [Styrolyl acetate] | 0.554 | 0.312 | 0.402 | 0.641 | – | –
CC(=O)OC(C)(C)C1CC=C(C)CC1 (centres unmarked) [Terpinyl acetate] | – | – | – | – | 0.644 | 0.418
CC1=CCC2CC1C2(C)C (stereo not drawn) [alpha-Pinene] | 0.067 | 0.363 | 1.078 | −0.110 | – | –
CC1=CCC(C(C)C)=CC1 [gamma-Terpinene] | −0.004 | 1.032 | 1.064 | 0.411 | – | –
Caryophyllene | – | – | – | – | 0.827 | 1.132
